Laboratory results as given in ChEMBL document CHEMBL4425136, “4-Oxo-1,4-dihydroquinoline-3-carboxamide Derivatives as New Axl Kinase Inhibitors” (J Med Chem, 2016).

Key:
[1] = target: T1, Tyrosine-protein kinase receptor UFO (Homo sapiens, UniProt P30530); assay: Inhibition of human recombinant AXL incubated for 1 to 1.5 hrs by FRET based Z'-Lyte kinase assay
T1 sequence (P30530 whole entry): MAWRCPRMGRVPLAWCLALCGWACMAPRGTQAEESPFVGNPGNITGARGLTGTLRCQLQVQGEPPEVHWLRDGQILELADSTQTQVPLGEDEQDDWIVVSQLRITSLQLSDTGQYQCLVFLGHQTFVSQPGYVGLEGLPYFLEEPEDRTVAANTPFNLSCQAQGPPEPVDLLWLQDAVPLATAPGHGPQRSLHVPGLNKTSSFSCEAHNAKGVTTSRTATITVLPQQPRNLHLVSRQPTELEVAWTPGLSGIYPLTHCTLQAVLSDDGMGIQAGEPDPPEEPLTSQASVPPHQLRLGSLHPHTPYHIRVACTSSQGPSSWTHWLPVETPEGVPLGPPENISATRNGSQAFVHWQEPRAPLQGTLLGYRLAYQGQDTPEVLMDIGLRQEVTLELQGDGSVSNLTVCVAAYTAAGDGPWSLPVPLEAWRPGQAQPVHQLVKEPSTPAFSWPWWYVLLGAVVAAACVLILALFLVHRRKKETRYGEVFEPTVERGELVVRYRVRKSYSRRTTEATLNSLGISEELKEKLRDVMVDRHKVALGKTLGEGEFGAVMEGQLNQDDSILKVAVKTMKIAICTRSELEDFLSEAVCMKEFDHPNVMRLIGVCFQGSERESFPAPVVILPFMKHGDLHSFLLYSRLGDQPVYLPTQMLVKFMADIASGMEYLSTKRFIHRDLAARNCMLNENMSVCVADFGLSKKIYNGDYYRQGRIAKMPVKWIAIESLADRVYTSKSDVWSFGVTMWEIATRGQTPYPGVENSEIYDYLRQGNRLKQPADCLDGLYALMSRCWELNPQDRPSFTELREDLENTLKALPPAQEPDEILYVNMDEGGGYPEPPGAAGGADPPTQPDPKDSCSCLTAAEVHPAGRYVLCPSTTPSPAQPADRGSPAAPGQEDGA

[2] = tested on: 4T1; assay: Antiproliferative activity against mouse 4T1 cells over-expressing Axl cells after 24 to 72 hrs by CCK8 assay; format: functional, cell-based
[3] = Oral bioavailability in Sprague-Dawley rat at 25 mg/kg by LC/MS method; format: ADME, organism-based; conditions: in vivo
[4] = target: T1, Tyrosine-protein kinase receptor UFO; assay: Binding affinity to human AXL by active site dependent completion binding assay
[5] = tested on: 4T1; assay: Antiproliferative activity against mouse 4T1 cells over-expressing Axl cells after 24 to 72 hrs by MTT assay; format: functional, cell-based
[6] = tested on: MDA-MB-231; assay: Antiproliferative activity against human MDA-MB-231 cells after 24 to 72 hrs by CCK8 assay; format: functional, cell-based
[7] = tested on: MDA-MB-231; assay: Effect on total AKT protein level in human MDA-MB-231 cells at 0.03 to 3 uM after 6 hrs by Western blot method; format: ADME, cell-based; conditions: mda-mb-231, 6 h
[8] = tested on: MDA-MB-231; assay: Antiproliferative activity against human MDA-MB-231 cells after 24 to 72 hrs by MTT assay; format: functional, cell-based
[9] = tested on: MDA-MB-231; assay: Effect on total AXL protein level in human MDA-MB-231 cells at 0.03 to 3 uM after 6 hrs by Western blot method; format: ADME, cell-based; conditions: mda-mb-231, 6 h
[10] = Tmax in Sprague-Dawley rat at 25 mg/kg, po by LC/MS method; format: ADME, organism-based; conditions: in vivo
[11] = target: Tyrosine-protein kinase Mer (Homo sapiens, UniProt Q12866); assay: Binding affinity to human MER
[12] = target: Cyclin-dependent kinase 8 (Homo sapiens, UniProt P49336); assay: Binding affinity to human CDK8
[13] = target: Tyrosine-protein kinase receptor TYRO3 (Homo sapiens, UniProt Q06418); assay: Binding affinity to human Tyro3
[14] = target: BDNF/NT-3 growth factors receptor (Homo sapiens, UniProt Q16620); assay: Binding affinity to human TRKB
[15] = target: Dual specificity mitogen-activated protein kinase kinase 5 (Homo sapiens, UniProt Q13163); assay: Binding affinity to human MEK5
[16] = target: Discoidin domain-containing receptor 2 (Homo sapiens, UniProt Q16832); assay: Inhibition of DDR2 (unknown origin)
[17] = tested on: MDA-MB-231; assay: Toxicity in human MDA-MB-231 cells at 0.04 to 5 uM incubated for 24 hrs; format: cell-based; conditions: mda-mb-231, 24 h
[18] = Half life in Sprague-Dawley rat at 2.5 mg/kg, iv by LC/MS method; format: ADME, organism-based; conditions: in vivo
[19] = tested on: MDA-MB-231; assay: Inhibition of TGFbeta1-induced cell invasion in human MDA-MB-231 cells at 1 uM incubated for 24 hrs by matrigel-mediated Boyden chamber assay; format: functional; conditions: MDA-MB-231, 24 h
[20] = Cmax in Sprague-Dawley rat at 2.5 mg/kg, iv by LC/MS method; format: ADME, organism-based; set-up: dose 2.5 mg/kg, route intravenous; conditions: in vivo
[21] = target: ALK tyrosine kinase receptor (Homo sapiens, UniProt Q9UM73); assay: Binding affinity to human ALK
[22] = target: T2, Receptor-type tyrosine-protein kinase FLT3 (Homo sapiens, UniProt P36888); assay: Inhibition of FLT3 (unknown origin)
[23] = target: T2, Receptor-type tyrosine-protein kinase FLT3; assay: Binding affinity to human FLT3
[24] = Clearance in Sprague-Dawley rat at 2.5 mg/kg, iv by LC/MS method; format: ADME, organism-based; conditions: in vivo
[25] = target: Serine/threonine-protein kinase 10 (Homo sapiens, UniProt O94804); assay: Binding affinity to human LOK
[26] = target: Aurora kinase A (Homo sapiens, UniProt O14965); assay: Inhibition of aurora A (unknown origin)
[27] = target: Hepatocyte growth factor receptor (Homo sapiens, UniProt P08581); assay: Binding affinity to human MET
[28] = AUC (0 to infinity) in Sprague-Dawley rat at 2.5 mg/kg, iv by LC/MS method; format: ADME, organism-based; set-up: dose 2.5 mg/kg, route intravenous, time infinity; conditions: in vivo
[29] = target: T1, Tyrosine-protein kinase receptor UFO; assay: Binding affinity to human AXL
[30] = target: STE20-like serine/threonine-protein kinase (Homo sapiens, UniProt Q9H2G2); assay: Binding affinity to human SLK
[31] = target: Tyrosine-protein kinase Blk (Homo sapiens, UniProt P51451); assay: Binding affinity to human BLK
[32] = target: Aurora kinase B (Homo sapiens, UniProt Q96GD4); assay: Inhibition of aurora B (unknown origin)
[33] = tested on: MDA-MB-231; assay: Inhibition of TGFbeta1-induced cell migration in human MDA-MB-231 cells at 1 uM incubated for 24 hrs by wound healing assay; format: functional; conditions: MDA-MB-231, 24 h
[34] = target: Homeodomain-interacting protein kinase 4 (Homo sapiens, UniProt Q8NE63); assay: Binding affinity to human HIPk4
[35] = target: High affinity nerve growth factor receptor (Homo sapiens, UniProt P04629); assay: Binding affinity to human TRKA
[36] = target: Epithelial discoidin domain-containing receptor 1 (Homo sapiens, UniProt Q08345); assay: Inhibition of DDR1 (unknown origin)
[37] = target: Mast/stem cell growth factor receptor Kit (Homo sapiens, UniProt P10721); assay: Binding affinity to human KIT
[38] = tested on: MDA-MB-231; assay: Inhibition of TGFbeta1-induced cell migration in human MDA-MB-231 cells at 0.2 uM incubated for 24 hrs by wound healing assay; format: functional; conditions: MDA-MB-231, 24 h
[39] = tested on: MDA-MB-231; assay: Inhibition of TGFbeta1-induced cell invasion in human MDA-MB-231 cells at 0.04 uM incubated for 24 hrs by matrigel-mediated Boyden chamber assay; format: functional; conditions: MDA-MB-231, 24 h
[40] = target: Cyclin-dependent kinase 11B (Homo sapiens, UniProt P21127); assay: Binding affinity to human CDK11
[41] = tested on: MDA-MB-231; assay: Inhibition of TGFbeta1-induced cell migration in human MDA-MB-231 cells at 5 uM incubated for 24 hrs by wound healing assay; format: functional; conditions: MDA-MB-231, 24 h
[42] = Ratio of Cmax in Sprague-Dawley rat at 25 mg/kg, po to IC50 for inhibition of human recombinant AXL; format: organism-based; conditions: in vivo
[43] = tested on: MDA-MB-231; assay: Inhibition of TGFbeta1-induced cell invasion in human MDA-MB-231 cells at 0.2 uM incubated for 24 hrs by matrigel-mediated Boyden chamber assay; format: functional; conditions: MDA-MB-231, 24 h
[44] = tested on: MDA-MB-231; assay: Inhibition of TGFbeta1-induced cell invasion in human MDA-MB-231 cells at 5 uM incubated for 24 hrs by matrigel-mediated Boyden chamber assay; format: functional; conditions: MDA-MB-231, 24 h

T2 sequence (P36888 whole entry): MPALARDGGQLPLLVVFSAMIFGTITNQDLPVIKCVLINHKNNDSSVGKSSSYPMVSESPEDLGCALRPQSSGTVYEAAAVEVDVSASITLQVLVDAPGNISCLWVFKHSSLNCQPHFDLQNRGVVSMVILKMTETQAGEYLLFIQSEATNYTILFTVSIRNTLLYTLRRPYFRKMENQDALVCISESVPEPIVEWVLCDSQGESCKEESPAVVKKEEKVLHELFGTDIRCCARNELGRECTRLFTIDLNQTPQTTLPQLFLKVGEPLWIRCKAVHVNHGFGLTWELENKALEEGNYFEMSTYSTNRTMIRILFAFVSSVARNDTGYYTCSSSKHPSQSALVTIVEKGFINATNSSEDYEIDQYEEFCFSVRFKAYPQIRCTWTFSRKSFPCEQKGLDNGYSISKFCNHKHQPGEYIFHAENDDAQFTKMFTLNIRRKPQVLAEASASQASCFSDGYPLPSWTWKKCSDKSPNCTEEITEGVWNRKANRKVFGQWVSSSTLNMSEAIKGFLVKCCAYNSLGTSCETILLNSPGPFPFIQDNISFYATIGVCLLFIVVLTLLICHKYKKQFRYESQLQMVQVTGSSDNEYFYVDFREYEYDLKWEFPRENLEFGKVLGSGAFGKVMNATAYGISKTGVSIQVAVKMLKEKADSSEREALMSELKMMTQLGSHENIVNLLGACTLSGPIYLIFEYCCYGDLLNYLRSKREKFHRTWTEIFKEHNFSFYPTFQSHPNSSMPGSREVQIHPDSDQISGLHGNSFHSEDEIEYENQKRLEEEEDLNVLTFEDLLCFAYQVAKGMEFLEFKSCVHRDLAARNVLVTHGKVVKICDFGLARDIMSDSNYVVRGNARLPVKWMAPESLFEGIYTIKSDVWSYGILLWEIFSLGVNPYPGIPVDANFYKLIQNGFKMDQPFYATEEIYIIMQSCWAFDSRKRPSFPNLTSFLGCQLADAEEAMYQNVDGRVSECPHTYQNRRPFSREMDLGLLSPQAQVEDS
Chain of Hepatocyte growth factor receptor (P08581 whole entry): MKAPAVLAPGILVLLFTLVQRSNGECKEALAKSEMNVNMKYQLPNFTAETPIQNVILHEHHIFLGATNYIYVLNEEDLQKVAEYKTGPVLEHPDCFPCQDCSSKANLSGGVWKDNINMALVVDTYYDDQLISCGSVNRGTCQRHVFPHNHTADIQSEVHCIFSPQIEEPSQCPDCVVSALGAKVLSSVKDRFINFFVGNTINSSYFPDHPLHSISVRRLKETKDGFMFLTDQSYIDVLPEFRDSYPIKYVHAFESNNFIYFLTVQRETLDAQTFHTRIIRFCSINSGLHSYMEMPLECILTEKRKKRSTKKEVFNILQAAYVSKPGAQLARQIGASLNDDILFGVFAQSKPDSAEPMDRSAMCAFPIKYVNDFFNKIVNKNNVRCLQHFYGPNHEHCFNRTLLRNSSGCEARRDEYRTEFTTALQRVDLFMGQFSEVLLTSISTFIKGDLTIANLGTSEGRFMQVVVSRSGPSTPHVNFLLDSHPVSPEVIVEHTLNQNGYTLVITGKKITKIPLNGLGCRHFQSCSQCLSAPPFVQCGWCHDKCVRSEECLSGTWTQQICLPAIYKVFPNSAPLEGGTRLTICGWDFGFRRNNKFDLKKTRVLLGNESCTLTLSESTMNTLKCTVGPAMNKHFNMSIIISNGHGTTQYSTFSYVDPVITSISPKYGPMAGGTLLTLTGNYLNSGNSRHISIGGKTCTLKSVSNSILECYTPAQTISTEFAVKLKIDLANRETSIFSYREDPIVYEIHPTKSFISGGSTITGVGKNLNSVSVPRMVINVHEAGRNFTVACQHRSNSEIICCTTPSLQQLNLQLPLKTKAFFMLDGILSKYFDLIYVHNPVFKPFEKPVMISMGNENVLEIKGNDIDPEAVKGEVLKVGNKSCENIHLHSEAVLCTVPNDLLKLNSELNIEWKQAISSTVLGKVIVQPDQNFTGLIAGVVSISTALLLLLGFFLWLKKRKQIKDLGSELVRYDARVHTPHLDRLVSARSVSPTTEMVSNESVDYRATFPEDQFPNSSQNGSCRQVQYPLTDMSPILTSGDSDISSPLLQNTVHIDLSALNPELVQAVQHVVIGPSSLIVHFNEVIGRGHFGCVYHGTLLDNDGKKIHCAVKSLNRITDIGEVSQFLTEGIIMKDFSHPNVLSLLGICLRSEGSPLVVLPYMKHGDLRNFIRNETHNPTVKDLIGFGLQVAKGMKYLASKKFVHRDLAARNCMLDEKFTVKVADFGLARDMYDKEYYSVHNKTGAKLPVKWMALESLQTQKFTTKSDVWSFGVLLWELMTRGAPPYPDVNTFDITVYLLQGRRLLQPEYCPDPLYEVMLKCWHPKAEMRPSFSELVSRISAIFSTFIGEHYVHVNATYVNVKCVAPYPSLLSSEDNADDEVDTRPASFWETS
Chain of ALK tyrosine kinase receptor (Q9UM73 whole entry): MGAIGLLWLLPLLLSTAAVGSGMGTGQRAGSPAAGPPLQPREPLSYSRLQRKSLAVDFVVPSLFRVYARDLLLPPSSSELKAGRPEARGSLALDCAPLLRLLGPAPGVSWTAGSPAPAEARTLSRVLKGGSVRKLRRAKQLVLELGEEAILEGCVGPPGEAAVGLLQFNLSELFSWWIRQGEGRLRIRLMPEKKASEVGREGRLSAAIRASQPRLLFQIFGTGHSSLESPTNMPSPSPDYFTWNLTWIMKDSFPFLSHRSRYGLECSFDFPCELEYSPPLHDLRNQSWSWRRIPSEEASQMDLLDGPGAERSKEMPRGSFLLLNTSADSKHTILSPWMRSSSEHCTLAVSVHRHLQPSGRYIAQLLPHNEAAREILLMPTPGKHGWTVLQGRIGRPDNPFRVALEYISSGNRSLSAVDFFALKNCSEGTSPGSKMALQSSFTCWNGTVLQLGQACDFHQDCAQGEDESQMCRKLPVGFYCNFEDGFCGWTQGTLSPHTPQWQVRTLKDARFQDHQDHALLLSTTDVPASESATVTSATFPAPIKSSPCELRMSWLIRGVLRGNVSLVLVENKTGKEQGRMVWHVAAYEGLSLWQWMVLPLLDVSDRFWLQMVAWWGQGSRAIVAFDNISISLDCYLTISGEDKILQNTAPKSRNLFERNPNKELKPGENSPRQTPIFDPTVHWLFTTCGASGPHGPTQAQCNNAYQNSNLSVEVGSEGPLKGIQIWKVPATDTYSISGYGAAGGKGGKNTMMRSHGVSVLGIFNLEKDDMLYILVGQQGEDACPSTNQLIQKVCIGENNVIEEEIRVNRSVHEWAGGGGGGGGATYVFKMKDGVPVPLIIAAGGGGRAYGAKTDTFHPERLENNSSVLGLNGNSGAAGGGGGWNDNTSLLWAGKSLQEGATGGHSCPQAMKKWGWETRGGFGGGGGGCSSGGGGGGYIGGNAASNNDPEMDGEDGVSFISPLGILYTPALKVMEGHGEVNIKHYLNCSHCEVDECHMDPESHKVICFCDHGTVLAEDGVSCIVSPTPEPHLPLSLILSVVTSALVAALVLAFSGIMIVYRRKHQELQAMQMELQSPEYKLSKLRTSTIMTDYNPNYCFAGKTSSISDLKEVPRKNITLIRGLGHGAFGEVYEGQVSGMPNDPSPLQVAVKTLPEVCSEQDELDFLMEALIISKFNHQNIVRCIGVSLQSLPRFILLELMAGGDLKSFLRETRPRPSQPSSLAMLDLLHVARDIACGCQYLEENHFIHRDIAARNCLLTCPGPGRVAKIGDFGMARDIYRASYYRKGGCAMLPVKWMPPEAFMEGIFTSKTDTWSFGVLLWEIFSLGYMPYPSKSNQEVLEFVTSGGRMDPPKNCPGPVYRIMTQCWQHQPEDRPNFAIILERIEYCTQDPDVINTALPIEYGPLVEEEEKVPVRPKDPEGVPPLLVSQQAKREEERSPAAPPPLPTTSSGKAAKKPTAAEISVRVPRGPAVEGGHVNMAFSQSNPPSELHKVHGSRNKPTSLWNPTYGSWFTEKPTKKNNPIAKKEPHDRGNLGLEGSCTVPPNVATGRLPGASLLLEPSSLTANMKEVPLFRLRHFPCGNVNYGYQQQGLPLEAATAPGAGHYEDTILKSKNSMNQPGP
Chain of Serine/threonine-protein kinase 10 (O94804 whole entry): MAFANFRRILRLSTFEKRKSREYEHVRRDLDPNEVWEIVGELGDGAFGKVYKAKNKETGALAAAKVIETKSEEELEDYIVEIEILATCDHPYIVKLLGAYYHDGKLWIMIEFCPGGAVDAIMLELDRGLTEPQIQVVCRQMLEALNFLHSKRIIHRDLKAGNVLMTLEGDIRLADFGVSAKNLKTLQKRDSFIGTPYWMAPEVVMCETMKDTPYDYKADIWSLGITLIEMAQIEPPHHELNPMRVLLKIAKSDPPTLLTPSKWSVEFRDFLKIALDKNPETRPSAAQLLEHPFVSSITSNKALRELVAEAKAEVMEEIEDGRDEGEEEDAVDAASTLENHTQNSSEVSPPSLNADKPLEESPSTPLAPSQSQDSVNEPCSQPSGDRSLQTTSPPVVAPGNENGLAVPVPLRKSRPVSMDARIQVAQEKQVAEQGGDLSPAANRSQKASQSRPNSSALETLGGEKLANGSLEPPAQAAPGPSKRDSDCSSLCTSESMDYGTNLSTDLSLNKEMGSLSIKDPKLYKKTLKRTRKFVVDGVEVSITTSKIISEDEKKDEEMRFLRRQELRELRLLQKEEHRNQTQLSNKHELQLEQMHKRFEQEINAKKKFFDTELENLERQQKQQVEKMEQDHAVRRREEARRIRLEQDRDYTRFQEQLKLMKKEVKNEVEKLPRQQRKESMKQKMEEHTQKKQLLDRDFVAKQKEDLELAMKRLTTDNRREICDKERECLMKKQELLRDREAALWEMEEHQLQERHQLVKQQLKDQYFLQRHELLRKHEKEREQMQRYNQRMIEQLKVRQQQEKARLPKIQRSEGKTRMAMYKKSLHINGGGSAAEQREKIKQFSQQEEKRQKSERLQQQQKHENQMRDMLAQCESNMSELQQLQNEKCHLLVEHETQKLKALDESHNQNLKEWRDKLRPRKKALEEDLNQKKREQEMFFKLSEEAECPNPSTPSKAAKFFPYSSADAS

COC(=O)c1ccc2c(c1)c(=O)c(C(=O)Nc1ccc(Oc3ncnc4[nH]cc(-c5ccccc5)c34)c(F)c1)c(C)n2C
IC50 [1]: > 10000 nM

Cc1ccc2c(c1)c(=O)c(C(=O)Nc1ccc(Oc3ncnc4[nH]cc(-c5ccccc5)c34)c(F)c1)cn2C
IC50 [1]: 150 nM

Cc1c(C(=O)Nc2ccc(Oc3ncnc4[nH]cc(-c5ccccc5)c34)c(F)c2)c(=O)c2cc(OC(F)(F)F)ccc2n1C
IC50 [1]: 74 nM

Cc1c(C(=O)Nc2ccc(Oc3ncnc4[nH]cc(-c5ccccc5)c34)c(F)c2)c(=O)c2cc(C3CC3)ccc2n1C
IC50 [1]: 230 nM

CCc1ccc2c(c1)c(=O)c(C(=O)Nc1ccc(Oc3ncnc4[nH]cc(-c5ccccc5)c34)c(F)c1)c(C)n2C
IC50 [2]: > 10000 nM | bioavailability [3]: 1.2% | Kd [4]: 1.2 nM | IC50 [5]: > 10000 nM | IC50 [6]: > 10000 nM | Activity [7]: Non-Toxic | IC50 [8]: > 10000 nM | Activity [9]: Non-Toxic | Tmax [10]: 0.67 h

Cc1c(C(=O)Nc2ccc(Oc3ncnc4[nH]cc(-c5ccccc5)c34)c(F)c2)c(=O)c2cc(C(F)(F)F)ccc2n1C
IC50 [1]: 150 nM

CCc1ccc2c(c1)c(=O)c(C(=O)Nc1ccc(Oc3ncnc4[nH]cc(-c5ccccc5)c34)cc1F)c(C)n2C
IC50 [1]: 30 nM

CCc1ccc2c(c1)c(=O)c(C(=O)Nc1ccc(Oc3ccnc4[nH]cc(-c5ccccc5)c34)c(F)c1)c(C)n2C
IC50 [1]: 30 nM

CCc1ccc2c(c1)c(=O)c(C(=O)Nc1ccc(Oc3ncnc4cc(OC)c(OC)cc34)c(F)c1)c(C)n2C
Kd [11]: 1.4 nM | Kd [12]: > 1000 nM | Kd [13]: 58 nM | Kd [14]: 54 nM | Kd [15]: 38 nM | IC50 [16]: 350 nM | Activity [17]: Non-Toxic | IC50 [2]: > 10000 nM | half-life [18]: 25.2 h | inhibition at 1 µM [19]: 73.5% | Cmax [20]: 1170 ng/mL | Kd [21]: > 1000 nM | Kd [4]: 2.7 nM | IC50 [22]: < 10 nM | IC50 [5]: > 10000 nM | Kd [23]: 4 nM | clearance [24]: 1.67 mL/min/kg | Kd [25]: 10 nM | IC50 [6]: > 10000 nM | IC50 [26]: 192 nM | Kd [27]: 79 nM | Activity [7]: Non-Toxic | AUC(0-inf) [28]: 42300 ng·h/mL | Kd [29]: 2.7 nM | Kd [30]: 240 nM | Kd [31]: 200 nM | IC50 [32]: 114 nM | inhibition at 1 µM [33]: 50.6% | Kd [34]: 11 nM | Kd [35]: 50 nM | IC50 [8]: > 10000 nM | IC50 [36]: 22.2 nM | Kd [37]: 1670 nM | inhibition at 0.2 µM [38]: 24.2% | inhibition at 0.04 µM [39]: 48.5% | Activity [9]: Non-Toxic | Kd [40]: 470 nM | inhibition at 5 µM [41]: 58.4% | Tmax [10]: 6 h | Ratio [42]: > 900 | inhibition at 0.2 µM [43]: 52.1% | inhibition at 5 µM [44]: 78.1%

Cc1c(C(=O)Nc2ccc(Oc3ncnc4[nH]cc(-c5ccccc5)c34)c(F)c2)c(=O)c2cc(C3=CCCC3)ccc2n1C
IC50 [1]: 3320 nM

CCc1ccc2c(c1)c(=O)c(C(=O)Nc1ccc(Oc3ccnc(C(N)=O)c3Cl)c(F)c1)c(C)n2C
IC50 [1]: > 10000 nM

Cc1c(C(=O)Nc2ccc(Oc3ncnc4[nH]cc(-c5ccccc5)c34)c(F)c2)c(=O)c2cc(C3CCCC3)ccc2n1C
IC50 [1]: 200 nM

Cc1ccc2c(c1)c(=O)c(C(=O)Nc1ccc(Oc3ncnc4[nH]cc(-c5ccccc5)c34)c(F)c1)c(C)n2C
IC50 [1]: 100 nM

CCc1ccc2c(c1)c(=O)c(C(=O)Nc1ccc(Oc3ccnc4occ(-c5ccccc5)c34)c(F)c1)c(C)n2C
IC50 [1]: 192 nM

C=C(C)c1ccc2c(c1)c(=O)c(C(=O)Nc1ccc(Oc3ncnc4[nH]cc(-c5ccccc5)c34)c(F)c1)c(C)n2C
IC50 [1]: 170 nM

CCn1c(C)c(C(=O)Nc2ccc(Oc3ncnc4[nH]cc(-c5ccccc5)c34)c(F)c2)c(=O)c2cc(C)ccc21
IC50 [1]: 150 nM

CCc1ccc2c(c1)c(=O)c(C(=O)Nc1ccc(Oc3ccnc(Cl)c3)c(F)c1)c(C)n2C
IC50 [1]: > 10000 nM
